Source: ChEMBL document CHEMBL2094269, “WEHI/Eskitis Trypanosoma b. brucei screening data”

Test system: Trypanosoma brucei brucei
Test: microbe, parasite or virus in culture
Format: functional, organism-based, STIB 795
Details: Trypanosoma brucei, STIB 795
Description: DNDI: Inhibition of Human African Trypanosomiasis (HAT), STIB 795, in vitro

| Compound | IC50 [µM] |
| --- | --- |
| O=C(NO)c1ccccc1C(F)(F)F | > 10.4 |
| Cc1ccc(CN2C(=O)CCC2C(=O)N2CCN(c3ccc(F)cc3)CC2)cc1 (stereo unspecified) | > 10.4 |
| c1ccc(CCCNc2ccnc3cc4ccccc4cc23)cc1 | > 10.4 |
| ON=C(/C=C/c1ccccc1)/C=C/c1ccccc1 | > 10.4 |
| CNc1nsc(C(=O)c2ccc(C)cc2)c1N | > 10.4 |
| Cc1cc(N2CCC(C)CC2)nc2ccc(NC(=O)c3c(F)cccc3F)cc12 | > 10.4 |
| O=C(CCC(=O)Nc1cccc(Cl)c1)N/N=C/c1c(O)ccc2ccccc12 | > 10.4 |
| COc1cc(C(=O)O/N=C(\N)c2ccncc2)cc(OC)c1OC | > 10.4 |
| Cc1ccc(O)c(C(=O)CC(=O)c2ccccc2C)c1 | > 10.4 |
| CCCCC(O)(CCCC)C(=O)NNc1ccc(C)cc1 | > 10.4 |
| CC(NCC(O)COCCC12CC3CC(CC(C3)C1)C2)c1ccccc1 (stereo unspecified) | > 10.4 |
| CCC(=O)c1sc(Nc2ccc(F)c(Cl)c2)nc1N | > 10.4 |
| CCCCOc1cccc(-c2cc(C(=O)N/N=C(\C)CC)c3ccccc3n2)c1 | > 10.4 |
| Oc1ccc(/C=N/N2CCN(c3ccccc3)CC2)cc1O | > 10.4 |
| C=C1N(CCCCN2C(=C)C(C)(C)c3ccccc32)c2ccccc2C1(C)C | > 10.4 |
| CCOC(=O)c1nc(Nc2cc(Cl)c(OC)cc2OC)c2ccccc2n1 | > 10.4 |
| N/C(=N\OC(=O)c1ccccc1F)c1ccccc1 | > 10.4 |
| Fc1cccc(Cl)c1COc1ccc(/C=N/n2cnnc2)cc1 | > 10.4 |
| CCOc1cccc(CNCCO)c1OCc1ccc(Cl)cc1Cl | > 10.4 |
| Cc1ccc(Nc2nc3c(N)nnc(N)c3nc2Nc2ccc(C)cc2)cc1 | > 10.4 |
| O=C1C(Nc2ccccc2)=C/C(=N/S(=O)(=O)c2cccs2)c2ccccc21 | > 10.4 |
| Cc1cc(=O)[nH]c(Nc2ccc(Br)cc2)n1 | > 10.4 |
| NS(=O)(=O)c1ccc(N/C=C2\C(=O)Nc3ccccc32)cc1 | > 10.4 |
| OC(CNCCc1ccccc1)Cn1c2c(c3ccccc31)CCCC2 (stereo unspecified) | > 10.4 |
| O=C(/C=C/n1c(=O)oc2ccccc21)c1ccccc1 | > 10.4 |

| Compound | IC50 [µM] |
| --- | --- |
| Nc1ncc(CCc2cccc(-c3ccccc3)c2)c(N)n1 | > 10.4 |
| CC1(C)CC(NC(=O)c2ccc(C#Cc3ccccc3)cc2)CC(C)(C)N1 | > 10.4 |
| COC(C(=O)NCc1ccc(Cl)cc1)(c1ccccc1)c1ccccc1 | > 10.4 |
| CCN(CC)CCn1c2ccccc2c2nc3ccccc3nc21 | > 10.4 |
| CN(C)S(=O)(=O)c1ccc2nc(NC(=O)c3cccs3)sc2c1 | > 10.4 |
| CCOC(=O)c1c(-c2cccs2)csc1NC(=O)C#Cc1ccccc1 | > 10.4 |
| N/C(=N\OC(=O)c1ccc(F)cc1)c1cccnc1 | > 10.4 |
| O=C(N/N=C\c1ccc(-c2cccc(Cl)c2Cl)o1)c1ccc(F)cc1 | > 10.4 |
| COc1ccc(/C(N)=N/OC(=O)c2ccccc2F)cc1OC | > 10.4 |
| NC(=S)N/N=C/c1sc(=O)[nH]c1Cl | > 10.4 |
| CN1CCC(Oc2ccccc2Sc2ccc(C(F)(F)F)cc2)CC1 | > 10.4 |
| O=C1N=C(Nc2cccc(Cl)c2Cl)S/C1=C\c1ccc(O)c(O)c1 | > 10.4 |
| Cc1ccc(-c2csc3ncnc(N/N=C/c4cc(C)ccc4O)c23)cc1 | > 10.4 |
| CCN(CC)C1=C(n2nnc3ccccc32)C(=O)c2ccccc2C1=O | > 10.4 |
| Nc1cc(NC(=O)c2ccncc2)cc(Oc2ccc(F)cc2)c1 | > 10.4 |
| CCN(CC)CC(O)CN(/N=C/c1ccc(N(CC)CC)cc1)c1ccccc1 (stereo unspecified) | > 10.4 |
| CC(C)(C)C(=O)Nc1cccc(NC(=O)c2ccc(C(C)(C)C)cc2)c1 | > 10.4 |
| Cc1ccnc(NC(c2ccc3cccnc3c2O)c2c(F)cccc2Cl)c1 (stereo unspecified) | > 10.4 |
| COc1ccc(NC2=NC(=O)C(CO)(CO)S2)cc1 | > 10.4 |
| O=C(O)c1ccccc1N/N=C(/c1ccccc1)c1ccc(Br)cc1 | > 10.4 |
| CC(C)NC(=O)Nc1ccc(-c2noc(-c3ccc(Br)o3)n2)cc1 | > 10.4 |
| CNC(=O)c1c[nH]c2ccc(S(=O)(=O)Nc3ccccc3C)cc2c1=O | > 10.4 |
| Nc1nc(Nc2ccccc2)sc1C(=O)c1c[nH]c2ccccc12 | > 10.4 |
| Oc1ccccc1/C=N/Nc1nc2ccccc2n2nnnc12 | > 10.4 |
| Clc1ccc(Nc2nc3nonc3nc2NC2CCCCC2)cc1Cl | > 10.4 |

| Compound | IC50 [µM] |
| --- | --- |
| NC(=S)N/N=C/c1ccc(OCc2c(Cl)cccc2Cl)cc1 | > 10.4 |
| COC(=O)CCC/C=C1/SC[C@@H](NC(=O)c2ccccc2)/C1=N/O | > 10.4 |
| Clc1ccc(Sc2ccc(/C=N/n3cnnc3)o2)cc1 | > 10.4 |
| CCN(CC)c1cc(C)c2cc(NC(=O)C3CCC(C(C)(C)C)CC3)ccc2n1 (stereo unspecified) | > 10.4 |
| CCOC(=O)CNC(=O)c1ccc2c(Cl)c3c(nc2c1)CCCC3 | > 10.4 |
| COc1ccccc1NC(=O)c1cc2ccccc2cc1O | > 10.4 |
| Clc1ccc(-c2nnc(NCCN3CCCC3)c3ccccc23)cc1 | > 10.4 |
| COc1cccc(/C=N/NC(=O)c2ccccc2I)c1O | > 10.4 |
| Cc1ccc(S(=O)(=O)C(CC(=O)c2ccco2)c2ccc(Cl)cc2)cc1 (stereo unspecified) | > 10.4 |
| O=C(N/N=C/c1ccc(-c2ccc(Br)cc2)o1)c1ccco1 | > 10.4 |
| CCn1c2ccccc2c2cc(NC(=O)C(=O)NCCCN(C)C)ccc21 | > 10.4 |
| Cc1ccccc1-c1cc(N2CCN(C(=O)NC3CCCCC3)CC2)ncn1 | > 10.4 |
| O=C(NCC1CCCO1)c1cnc2sc3c(n2c1=O)CCC3 (stereo unspecified) | > 10.4 |
| CCc1ccccc1Nc1cc(C)nc2c(OC)cccc12 | > 10.4 |
| CCC(=O)c1coc2ccc(O)cc12 | > 10.4 |
| CC(C)(C)c1ccc(CCC2OCC(CN3CCCC3)O2)cc1 (stereo unspecified) | > 10.4 |
| COc1ccc(C(=O)NN=C2C=C(C(C)(C)C)C(=O)C(C(C)(C)C)=C2)cc1OC | > 10.4 |
| CCCCCOc1ccc(NC(=N)Nc2nc(C)cc(C)n2)cc1 | > 10.4 |
| Oc1ccc2ccccc2c1/N=N/c1nccs1 | > 10.4 |
| N#CC1=C(N)NC(SCc2ccc(F)cc2)=C(C#N)C12CCCCC2 | > 10.4 |
| CC(C)(C)c1ccc(C(OC(CN)c2ccccc2)c2ccc(Cl)cc2)cc1 (stereo unspecified) | > 10.4 |
| CCOC(=O)C1CCCN(C2=NC(=O)/C(=C/c3ccc(O)c(OC)c3)S2)C1 (stereo unspecified) | > 10.4 |
| CC(C)(C)c1ccc(C(CN)c2ccc(Oc3ccccc3)cc2)cc1 (stereo unspecified) | > 10.4 |
| C=CCc1c(C)nc(SC)nc1Nc1ccc(C(C)=O)cc1 | > 10.4 |

Now from value to compound:

| IC50 [µM] | Compound |
| --- | --- |
| > 10.4 | Oc1ccc(CNc2ccccc2F)c2cccnc12 |
| > 10.4 | c1ccc(Oc2cccc(-c3nc4ccccc4[nH]3)c2)cc1 |
| > 10.4 | N#Cc1cc(C#N)c(SCC(=O)Nc2cccc(C(F)(F)F)c2)nc1N |
| > 10.4 | CCC(C)(CC)c1ccc(C(CN)c2ccc(-c3ccccc3)cc2)cc1 (stereo unspecified) |
| > 10.4 | COc1ccc(Nc2nc(N3CCN(C)CC3)nc3c2cnn3C)cc1Cl |
| > 10.4 | O=C1c2ccccc2C2=NS(=O)(=O)c3cccc1c32 |
| > 10.4 | Cc1ccc(C(=N)NOC(=O)c2cccs2)cc1 |
| > 10.4 | COc1ccc(CC(=O)Nc2sc3c(c2C#N)CC(C)(C)NC3(C)C)cc1 |
| > 10.4 | Cc1c(NC(=O)CN2CCN(C(=O)c3ccccc3)CC2)n(C)c2ccccc12 |
| > 10.4 | O=C(NN=C(/C=C/c1ccccc1)c1ccccc1)c1cc2ccccc2cc1O |
| > 10.4 | CCCC(CCC)C(=O)Nc1ccc(O)cc1C(=O)O |
| > 10.4 | CC1CC(OCC(O)CN2CCC(Cc3ccccc3)CC2)CC(C)(C)C1 (stereo unspecified) |
| > 10.4 | N=c1n(Cc2ccccc2Cl)c2ccccc2n1CC(O)c1ccco1 (stereo unspecified) |
| > 10.4 | CCOC(=O)c1cc2c(=O)n3ccccc3nc2n(CCCn2ccnc2)c1=N |
| > 10.4 | Fc1ccccc1Cn1c(C2CCCO2)nc2ccccc21 (stereo unspecified) |
| > 10.4 | CCOC(=O)N1CCN(c2ccc(/C=C(\C#N)c3nc4ccccc4[nH]3)o2)CC1 |
| > 10.4 | OCCN1CCN(Cc2ccccc2Sc2ccc3ccccc3c2)CC1 |
| > 10.4 | Cc1nc2ccc3nc(NC(=O)c4ccc(Cl)cc4Cl)sc3c2s1 |
| > 10.4 | C/C(=N/NC(=O)c1cc(-c2ccccc2)nc2ccccc12)c1ccccc1O |
| > 10.4 | C/C(=N\N1C(=O)c2ccccc2NC1c1ccco1)c1ccccc1O (stereo unspecified) |
| > 10.4 | O=C(Nc1nccs1)c1ccc(=O)n(Cc2ccccc2Cl)c1 |
| > 10.4 | CCCN1CCN(c2ncc3c(n2)CCN(Cc2ccccc2Cl)C3)CC1 |
| > 10.4 | Cc1ccc(O)c(/C=N/NC(=O)c2[nH]ncc2Br)c1 |
| > 10.4 | COC(=O)c1cccc(Nc2nc(N)c(C(=O)CC(C)C)s2)c1 |

| IC50 [µM] | Compound |
| --- | --- |
| > 10.4 | COC(=O)c1ccc2c(c1)C(C)(C)C(/C=C/c1cccc(OC)c1OC)=[N+]2C |
| > 10.4 | Cc1c(-c2cc(Cl)cc3c2OC(C)(C)C3=O)ccc(N)c1C#N |
| > 10.4 | COc1cc(/C=C/c2cc(C(F)(F)F)nc(=O)[nH]2)ccc1O |
| > 10.4 | CC(C)COCc1ccc(O)c2ncccc12 |
| > 10.4 | CCCCOC(=O)c1ccc(NC(=O)c2ccc(C3CCCCC3)cc2)cc1 |
| > 10.4 | O=C1C=C(N2CCCCC2c2cccnc2)C2(CCCCC2)O1 (stereo unspecified) |
| > 10.4 | COc1cccc(C2=CC(c3cc(OC)c(OC)c(OC)c3)n3nnnc3N2)c1 (stereo unspecified) |
| > 10.4 | CCS(=O)(=O)c1cccc(-c2ccc3nc(N)nc(N)c3c2C)c1 |
| > 10.4 | CC1CC(NC2CCCCC2)=Nc2ccccc2N1Cc1ccccc1 (stereo unspecified) |
| > 10.4 | Oc1cccc2ccc(Nc3ccccc3)nc12 |
| > 10.4 | N=C(Cc1cccc2ccccc12)NOC(=O)c1cccs1 |
| > 10.4 | C/C(=C\c1nsc(Nc2ccc(F)c(Cl)c2)n1)NCCC1=CCCCC1 |
| > 10.4 | CCN(CC)c1cc(C)c2cc(NC(=O)/C=C/c3ccccc3Cl)ccc2n1 |
| > 10.4 | CN(C)CCCC1=Cc2ccccc2Sc2ccccc21 |
| > 10.4 | Cc1cc(C)c2nc(C)cc(Nc3ccc(N(C)C)cc3)c2c1 |
| > 10.4 | Cc1occc1C(=O)N/N=C/c1ccc(-c2ccc(Cl)cc2Cl)o1 |
| > 10.4 | Cc1nc(=S)sn1-c1nc(Nc2ccccc2)nc(Nc2ccccc2)n1 |
| > 10.4 | O=C(N/N=C/c1ccc(Br)cc1O)c1n[nH]c2c1CCC2 |
| > 10.4 | C/C(=N/OC(=O)c1ccc(Cn2nc(C)c(Cl)c2C)cc1)c1ccccn1 |
| > 10.4 | Cn1c(=O)n(C)c2cc(N3CCCCC3)c(NC(=O)c3ccco3)cc21 |
| > 10.4 | Cc1c(-c2cc(F)cc3c2CC(C)(C)O3)ccc2nc(N)nc(N)c12 |
| > 10.4 | Cn1nc(-c2cccs2)nc2c(=O)n(C)c(=O)nc1-2 |
| > 10.4 | O=NC1=C(c2c(O)[nH]c3ccccc23)CCCC1 |
